Measurements published in paper PMC2824606 (Molecular cell, 2010).

Biological target: yHsp90 (yeast Hsp90, Hsp82) (Saccharomyces cerevisiae, UniProt P02829)
Test: Kd determination
Format: binding

Sequence of yHsp90 (yeast Hsp90, Hsp82) (P02829 whole entry): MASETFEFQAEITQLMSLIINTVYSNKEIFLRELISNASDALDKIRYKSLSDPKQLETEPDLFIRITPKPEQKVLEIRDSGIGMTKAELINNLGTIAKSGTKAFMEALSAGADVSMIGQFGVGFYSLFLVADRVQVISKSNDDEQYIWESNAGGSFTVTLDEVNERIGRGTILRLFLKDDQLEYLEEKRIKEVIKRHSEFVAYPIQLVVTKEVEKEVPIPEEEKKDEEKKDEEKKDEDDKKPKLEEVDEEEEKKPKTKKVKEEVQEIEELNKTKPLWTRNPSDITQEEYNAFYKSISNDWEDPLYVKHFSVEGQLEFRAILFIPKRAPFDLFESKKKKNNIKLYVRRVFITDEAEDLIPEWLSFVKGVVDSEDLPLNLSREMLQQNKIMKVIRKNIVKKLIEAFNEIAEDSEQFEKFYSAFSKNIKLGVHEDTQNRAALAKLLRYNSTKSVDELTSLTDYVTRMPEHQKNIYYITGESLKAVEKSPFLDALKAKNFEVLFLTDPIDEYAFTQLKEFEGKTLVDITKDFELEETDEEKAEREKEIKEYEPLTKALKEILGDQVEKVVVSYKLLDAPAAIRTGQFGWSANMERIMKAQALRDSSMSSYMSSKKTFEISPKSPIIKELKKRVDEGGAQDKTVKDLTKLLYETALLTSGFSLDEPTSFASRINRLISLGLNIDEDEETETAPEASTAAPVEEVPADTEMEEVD

Compound: Nc1ncnc2c1ncn2[C@@H]1O[C@H](CO[P@](=O)(O)O[P@](=O)(O)NP(=O)(O)O)[C@@H](O)[C@H]1O [AMPPNP]
- Kd: Kd of each protein for AMPPNP is shown in inset.
